From PubChem BioAssay (NCI)
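Grown in 96-well plates, cells were treated for 48 hours with each compound at five concentrations. Insufficient inhibition: endpoint recorded as highest concentration tested. GI50 is the concentration that inhibits growth by half. At the TGI there is no net growth.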

Tests used:
Assay in all cases: NCI-60 cell line screen, 48 h
OVCAR-3 ovarian = test system: OVCAR-3 ovarian
SN12C renal = test system: SN12C renal
LOX IMVI melanoma = test system: LOX IMVI melanoma
COLO 205 colon = test system: COLO 205 colon
SF-268 CNS = test system: SF-268 CNS
UO-31 renal = test system: UO-31 renal
HOP-92 NSCLC = test system: HOP-92 NSCLC
NCI-H226 lung = test system: NCI-H226 lung
U251 CNS = test system: U251 CNS
MOLT-4 leukemia = test system: MOLT-4 leukemia

Row | Structure (SMILES) | TGI (OVCAR-3 ovarian) | TGI (SN12C renal) | TGI (LOX IMVI melanoma) | TGI (COLO 205 colon) | TGI (SF-268 CNS) | TGI (UO-31 renal) | TGI (HOP-92 NSCLC) | TGI (NCI-H226 lung) | TGI (U251 CNS) | TGI (MOLT-4 leukemia) | GI50 (OVCAR-3 ovarian) | GI50 (SN12C renal) | GI50 (LOX IMVI melanoma) | GI50 (COLO 205 colon) | GI50 (SF-268 CNS) | GI50 (UO-31 renal) | GI50 (HOP-92 NSCLC) | GI50 (NCI-H226 lung) | GI50 (U251 CNS) | GI50 (MOLT-4 leukemia)
1 | O=c1[nH]c(-c2ccc(Cl)cc2)cc2ccsc12 | 4.26 µM | > 100 µM | > 100 µM | > 100 µM | > 100 µM | > 100 µM | 77.4 µM | > 100 µM | > 100 µM | > 100 µM | – | – | – | – | – | – | – | – | – | –
2 | CCOC(=O)C1=C(C)N(c2ccc(Cl)cc2)C2(O)C=CC(Nc3ccc(Cl)cc3)=C3C(=O)N(c4ccccc4)C(=O)C312 (centres undefined) | 2.09 µM | 13.4 µM | 4.36 µM | 7.2 µM | 20.1 µM | 20.3 µM | 9.19 µM | – | 39.5 µM | > 100 µM | – | – | – | – | – | – | – | – | – | –
3 | COc1cccc2c1C(=O)c1c(O)c3c(c(O)c1C2=O)CC(O)(C(C)=O)CC3O (centres undefined) | 23.8 µM | 29.4 µM | 8.7 µM | 24.7 µM | 31.9 µM | 28.8 µM | 28.9 µM | 18.6 µM | 14.9 µM | 11.3 µM | – | – | – | – | – | – | – | – | – | –
4 | CN1CCN(Cn2nc(-c3cc(F)c(Cl)cc3Cl)oc2=S)CC1 | > 100 µM | > 100 µM | 45.6 µM | 51.6 µM | > 100 µM | > 100 µM | > 100 µM | > 100 µM | > 100 µM | 70.9 µM | 37.4 µM | 28.3 µM | 20.3 µM | 23.6 µM | 34.2 µM | 74.1 µM | > 100 µM | 34.4 µM | 35.1 µM | 30.5 µM
